# Numbered stars: 1 amine (or outer) side, 2 acyl side, 3 side chain; on linkers, the order of the positions; unused ones are H or OH. Bridge positions count the residues as written; N and C are the ends. Square brackets hold non-standard residues; d marks the D form. Peptide text beside a SMILES is read from it. * marks the point of attachment. hPhe(3,5-F2-4-CF3) = N[C@@H](CCc1cc(F)c(C(F)(F)F)c(F)c1)C(=O)O; hPhe(3-Cl-4-CF3) = N[C@@H](CCc1ccc(C(F)(F)F)c(Cl)c1)C(=O)O; hPhe(3-F,4-CF3) = N[C@@H](CCc1ccc(C(F)(F)F)c(F)c1)C(=O)O; NEtPhe(4-CF3) = CCN[C@@H](Cc1ccc(C(F)(F)F)cc1)C(=O)O; NMePhe(4-CF3) = CN[C@@H](Cc1ccc(C(F)(F)F)cc1)C(=O)O; hPhe(4-CF3) = N[C@@H](CCc1ccc(C(F)(F)F)cc1)C(=O)O; X37 = CC(C)(C)NC(=O)COC[C@H](CC(=O)[*:1])N[*:2]; NEtPhe(4-Me) = CCN[C@@H](Cc1ccc(C)cc1)C(=O)O; NMePhe(4-Cl) = CN[C@@H](Cc1ccc(Cl)cc1)C(=O)O; X116 = O=C([C@H](CCc1cccc(F)c1)N[*:1])[*:2]; NMedβ3hAla = C[C@H](CC(=O)[*:2])N(C)[*:1]; NMeGly(cPent) = CN[C@H](C(=O)O)C1CCCC1; NMeAla(cPr) = CN[C@@H](CC1CC1)C(=O)O; NMeCha = CN[C@@H](CC1CCCCC1)C(=O)O; Hyp = O=C(O)[C@@H]1C[C@@H](O)CN1; NMeChg = CN[C@H](C(=O)O)C1CCCCC1; NMeF = CN[C@@H](Cc1ccccc1)C(=O)O; NMeI = CC[C@H](C)[C@H](NC)C(=O)O; NMeD = CN[C@@H](CC(=O)O)C(=O)O; NMeL = CN[C@@H](CC(C)C)C(=O)O; Cba = N[C@@H](CC1CCC1)C(=O)O; Tle = CC(C)(C)[C@H](N)C(=O)O; NMeV = CN[C@H](C(=O)O)C(C)C; d(β3hA) = C[C@@H](N)CC(=O)O; Azetidin(1-yl) = C1CN(*)C1; NMeS = CN[C@@H](CO)C(=O)O; Morpholide = C1CN(*)CCO1; NMeA = CN[C@@H](C)C(=O)O; Piperidide = C1CCN(*)CC1; Pyrrolidide = C1CCN(*)C1; Ac5c = NC1(C(=O)O)CCCC1; Aze = O=C(O)[C@@H]1CCN1; Ac4c = NC1(C(=O)O)CCC1; CH2CMe2OH = CC(C)(O)C*; Cyclobutyl = C1CC(*)C1; Aib = CC(C)(N)C(=O)O; NEtG = CCNCC(=O)O; Sar = CNCC(=O)O; Propyl = CCC*
# Molecular target: protein-protein interaction between Kras and SOS1 (biotin-tagged human Kras loaded with GDP, His-tagged human SOS1) (Homo sapiens (Human), UniProt P01116, G12D)
# Experiment: Protein-protein interaction inhibition between Kras and SOS1 (KrasG12D-SOS PPI) using AlphaScreen;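 note: kras produced in E. coli, Ni-coupled donor beads and streptavidin acceptor beads, excitation 680 nm with emission detected at 520–620 nm via singlet oxygen transfer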
# Assay type: biochemical
# Details: AlphaScreen; biotin-tagged human Kras loaded with GDP, His-tagged human SOS1; read-out: KRAS G12D-SOS PPI IC50
row,SMILES,IC50
1,"CCCOC[C@H]1C(=O)N(C)CC(=O)N[C@@H](CCc2ccc(C(F)(F)F)c(F)c2)C(=O)N2CCC[C@H]2C(=O)NC2(CCCC2)C(=O)N(C)[C@@H]([C@@H](C)CC)C(=O)N(C)[C@H](C(=O)N2CCCC2)CC(=O)N(C)[C@@H](CC(C)C)C(=O)N[C@@H]([C@@H](C)CC)C(=O)N(C)[C@@H](C)C(=O)N2CC[C@H]2C(=O)N1C [Compound 684] ([NMeL]I[NMeA][Aze][NMeS](Propyl)[Sar][hPhe(3-F,4-CF3)]P[Ac5c][NMeI][NMeD]-Pyrrolidide; lactam N-11)",1.9 nM
2,CC[C@H](C)[C@@H]1NC(=O)[C@H](C)N(C)C(=O)C[C@@H](C(=O)N2CCCCC2)N(C)C(=O)[C@H](C(C)C)N(C)C(=O)C2(CCCC2)NC(=O)[C@@H]2CCCN2C(=O)[C@H](CCc2cccc(F)c2)NC(=O)CN(C)C(=O)[C@H](CC2CCCCC2)N(C)C(=O)[C@@H]2CCN2C(=O)[C@H](C)N(C)C1=O [Compound 685] ([NMeA]I[NMeA][Aze][NMeCha][Sar][X116]P[Ac5c][NMeV][NMeD]-Piperidide; lactam N-11),130 nM
3,"CCCOC[C@H]1C(=O)N(C)CC(=O)N[C@@H](CCc2ccc(C(F)(F)F)c(F)c2)C(=O)N2CCC[C@H]2C(=O)NC2(CCCC2)C(=O)N(C)[C@@H]([C@@H](C)CC)C(=O)N(C)[C@H](C)CC(=O)N(C)[C@@H](CC(C)C)C(=O)N[C@@H]([C@@H](C)CC)C(=O)N(C)[C@@H](C)C(=O)N2CC[C@H]2C(=O)N1C [Compound 694] (cyclo([Ac5c][NMeI][NMedβ3hAla][NMeL]I[NMeA][Aze][NMeS](Propyl)[Sar][hPhe(3-F,4-CF3)]P))",14 nM
4,CC[C@H](C)[C@@H]1NC(=O)[C@H](CC(C)C)N(C)C(=O)C[C@@H](C(=O)N2CCCC2)NC(=O)[C@H](C2CCCC2)N(C)C(=O)C2(CCCC2)NC(=O)[C@@H]2CCCN2C(=O)[C@H](CCc2ccc(C(F)(F)F)c(Cl)c2)NC(=O)CN(C)C(=O)[C@H](CC2CCCCC2)N(C)C(=O)[C@@H]2CCN2C(=O)[C@H](C)N(C)C1=O [Compound 700] ([NMeL]I[NMeA][Aze][NMeCha][Sar][hPhe(3-Cl-4-CF3)]P[Ac5c][NMeGly(cPent)]D-Pyrrolidide; lactam N-11),5 nM
5,"CCO[C@@H]1C[C@H]2C(=O)NC3(CCC3)C(=O)N(C)[C@@H](C3CCCCC3)C(=O)N(C)[C@H](C)CC(=O)N(C)[C@@H](CC(C)C)C(=O)N[C@@H]([C@@H](C)CC)C(=O)N(C)[C@@H](C)C(=O)N3CC[C@H]3C(=O)N(CC)[C@@H](Cc3ccc(C)cc3)C(=O)N(C)CC(=O)N[C@@H](CCc3cc(F)c(C(F)(F)F)c(F)c3)C(=O)N2C1 [Compound 724] (cyclo([Ac4c][NMeChg][NMedβ3hAla][NMeL]I[NMeA][Aze][NEtPhe(4-Me)][Sar][hPhe(3,5-F2-4-CF3)][Hyp](Et)))",24 nM
6,CC[C@H](C)[C@@H]1NC(=O)[C@H](CC(C)C)N(C)C(=O)C[C@@H](C(=O)N2CCC2)N(C)C(=O)[C@H](C2CCCC2)N(C)C(=O)C2(CCCC2)NC(=O)[C@@H]2CCCN2C(=O)[C@H](CCc2ccc(C(F)(F)F)c(Cl)c2)NC(=O)CN(CC)C(=O)[C@H](CC2CCCCC2)N(C)C(=O)[C@@H]2CCN2C(=O)[C@H](C)N(C)C1=O [Compound 726] ([NMeL]I[NMeA][Aze][NMeCha][NEtG][hPhe(3-Cl-4-CF3)]P[Ac5c][NMeGly(cPent)][NMeD]-{Azetidin(1-yl)}; lactam N-11),1.3 nM
7,CC(C)C[C@H]1C(=O)N[C@@H](CC2CCC2)C(=O)N(C)[C@@H](C)C(=O)N2CC[C@H]2C(=O)N(C)[C@@H](CC2CCCCC2)C(=O)N(C)CC(=O)N[C@@H](CCc2ccc(C(F)(F)F)c(Cl)c2)C(=O)N2CCC[C@H]2C(=O)NC2(CCCC2)C(=O)N(C)[C@@H](C(C)C)C(=O)N(C)[C@H](C(=O)N2CCCCC2)CC(=O)N1C [Compound 733] ([NMeL][Cba][NMeA][Aze][NMeCha][Sar][hPhe(3-Cl-4-CF3)]P[Ac5c][NMeV][NMeD]-Piperidide; lactam N-11),51 nM
8,CC[C@H](C)[C@@H]1NC(=O)[C@H](C(C)C)N(C)C(=O)C[C@@H](C)NC(=O)[C@H](CC(C)C)N(C)C(=O)C(C)(C)NC(=O)[C@H](CC(C)C)N(C)C(=O)[C@H](CCc2ccc(C(F)(F)F)c(Cl)c2)NC(=O)CN(C)C(=O)[C@H](Cc2ccc(Cl)cc2)N(C)C(=O)CN(C)C(=O)CN(C)C1=O [Compound 740] (cyclo([Aib][NMeL][d(β3hA)][NMeV]I[Sar][Sar][NMePhe(4-Cl)][Sar][hPhe(3-Cl-4-CF3)][NMeL])),11 nM
9,CCO[C@@H]1C[C@H]2C(=O)NC3(CCC3)C(=O)N(C)[C@@H](C3CCCCC3)C(=O)N(C)[C@H](C)CC(=O)N(C)[C@@H](CC(C)C)C(=O)N[C@@H]([C@@H](C)CC)C(=O)N[C@@H](C)C(=O)N3CC[C@H]3C(=O)N(CC)[C@@H](Cc3ccc(C(F)(F)F)cc3)C(=O)N(C)CC(=O)N[C@@H](CCc3ccc(C(F)(F)F)c(Cl)c3)C(=O)N2C1 [Compound 743] (cyclo(A[Aze][NEtPhe(4-CF3)][Sar][hPhe(3-Cl-4-CF3)][Hyp](Et)[Ac4c][NMeChg][NMedβ3hAla][NMeL]I)),40 nM
10,CC[C@H](C)[C@@H]1NC(=O)[C@H](C)N(C)C(=O)C[C@@H](C)NC(=O)[C@H](C2CCCC2)N(C)C(=O)C2(CCCC2)NC(=O)[C@@H]2CCCN2C(=O)[C@H](CCc2ccc(C(F)(F)F)c(Cl)c2)NC(=O)CN(C)C(=O)[C@H](Cc2ccc(C(F)(F)F)cc2)N(C)C(=O)[C@@H]2CCCN2C(=O)CN(C)C1=O [Compound 749] (cyclo([Ac5c][NMeGly(cPent)][d(β3hA)][NMeA]I[Sar]P[NMePhe(4-CF3)][Sar][hPhe(3-Cl-4-CF3)]P)),2.8 nM
11,CC[C@H](C)[C@@H]1NC(=O)[C@H](COC2CCC2)N(C)C(=O)C[C@@H](C(=O)N2CCCCC2)N(C)C(=O)[C@H](C(C)C)N(C)C(=O)C2(CCCC2)NC(=O)[C@@H]2CCCN2C(=O)[C@H](CCc2ccc(C(F)(F)F)c(Cl)c2)NC(=O)CN(C)C(=O)[C@H](CC2CCCCC2)N(C)C(=O)[C@@H]2CCN2C(=O)[C@H](C)N(C)C1=O [Compound 755] ([NMeS](Cyclobutyl)I[NMeA][Aze][NMeCha][Sar][hPhe(3-Cl-4-CF3)]P[Ac5c][NMeV][NMeD]-Piperidide; lactam N-11),5.6 nM
12,CC[C@H](C)[C@@H]1NC(=O)[C@H](C(C)C)N(C)C(=O)C[C@@H](COCC(=O)NC(C)(C)C)NC(=O)[C@H](CC(C)C)N(C)C(=O)C2(CCCC2)NC(=O)[C@H](CC(C)C)N(C)C(=O)[C@H](CCc2ccc(C(F)(F)F)cc2)NC(=O)CN(C)C(=O)[C@H](Cc2ccc(Cl)cc2)N(C)C(=O)CN(C)C(=O)CN(C)C1=O [Compound 759] ([NMeV]I[Sar][Sar][NMePhe(4-Cl)][Sar][hPhe(4-CF3)][NMeL][Ac5c][NMeL]; linker N-C via X37),160 nM
13,CC[C@H](C)[C@@H]1NC(=O)[C@H](C)N(C)C(=O)C[C@@H](C)NC(=O)[C@H](CC(C)C)N(C)C(=O)[C@H](Cc2ccccc2)N(C)C(=O)[C@H](C(C)(C)C)NC(=O)[C@H](CCc2ccc(C(F)(F)F)cc2)NC(=O)CN(C)C(=O)[C@H](Cc2ccc(Cl)cc2)N(C)C(=O)CN(C)C(=O)CN(C)C1=O [Compound 764] (cyclo(I[Sar][Sar][NMePhe(4-Cl)][Sar][hPhe(4-CF3)][Tle][NMeF][NMeL][d(β3hA)][NMeA])),83 nM
14,CC[C@H](C)[C@@H]1NC(=O)[C@H](CC2CC2)N(C)C(=O)C[C@@H](C)NC(=O)[C@H](C(C)C)N(C)C(=O)C2(CCCC2)NC(=O)[C@@H]2CCCN2C(=O)[C@H](CCc2ccc(C(F)(F)F)c(Cl)c2)NC(=O)CN(C)C(=O)[C@H](CC2CCCCC2)N(C)C(=O)[C@@H]2CCN2C(=O)[C@H](C)N(C)C1=O [Compound 771] (cyclo([Ac5c][NMeV][d(β3hA)][NMeAla(cPr)]I[NMeA][Aze][NMeCha][Sar][hPhe(3-Cl-4-CF3)]P)),25 nM
15,"CCCOC[C@H]1C(=O)N(C)CC(=O)N[C@@H](CCc2ccc(C(F)(F)F)c(F)c2)C(=O)N2CCC[C@H]2C(=O)NC2(CCCC2)C(=O)N(C)[C@@H](C2CCCC2)C(=O)N(C)[C@H](C)CC(=O)N(C)[C@@H](CC(C)C)C(=O)N[C@@H]([C@@H](C)CC)C(=O)N(C)[C@@H](C)C(=O)N2CC[C@H]2C(=O)N1C [Compound 776] (cyclo([Ac5c][NMeGly(cPent)][NMedβ3hAla][NMeL]I[NMeA][Aze][NMeS](Propyl)[Sar][hPhe(3-F,4-CF3)]P))",7.3 nM
16,"CCO[C@@H]1C[C@H]2C(=O)NC3(CCCC3)C(=O)N(C)[C@@H](C3CCCC3)C(=O)N(C)[C@H](C)CC(=O)N(C)[C@@H](CC(C)C)C(=O)N[C@@H]([C@@H](C)CC)C(=O)N[C@@H](C)C(=O)N3CC[C@H]3C(=O)N(CC)[C@@H](Cc3ccc(C(F)(F)F)cc3)C(=O)N(C)CC(=O)N[C@@H](CCc3cc(F)c(C(F)(F)F)c(F)c3)C(=O)N2C1 [Compound 785] (cyclo(A[Aze][NEtPhe(4-CF3)][Sar][hPhe(3,5-F2-4-CF3)][Hyp](Et)[Ac5c][NMeGly(cPent)][NMedβ3hAla][NMeL]I))",3.5 nM
17,CC[C@H](C)[C@@H]1NC(=O)[C@H](CC(C)C)N(C)C(=O)C[C@@H](C(=O)N2CCCCC2)N(C)C(=O)[C@H](C2CCCCC2)N(C)C(=O)C2(CCCC2)NC(=O)[C@H](COCC(C)(C)O)N(C)C(=O)[C@H](CCc2ccc(C(F)(F)F)c(Cl)c2)NC(=O)CN(C)C(=O)[C@H](CC2CCCCC2)N(C)C(=O)CN(C)C(=O)CN(C)C1=O [Compound 789] ([NMeL]I[Sar][Sar][NMeCha][Sar][hPhe(3-Cl-4-CF3)][NMeS](CH2CMe2OH)[Ac5c][NMeChg][NMeD]-Piperidide; lactam N-11),0.61 nM
18,"CC[C@H](C)[C@@H]1NC(=O)[C@H](CC(C)C)N(C)C(=O)C[C@@H](C(=O)N2CCOCC2)N(C)C(=O)[C@H]([C@@H](C)CC)N(C)C(=O)C2(CCCC2)NC(=O)[C@@H]2CCCN2C(=O)[C@H](CCc2ccc(C(F)(F)F)c(F)c2)NC(=O)CN(C)C(=O)[C@H](CC2CCCCC2)N(C)C(=O)[C@@H]2CCN2C(=O)[C@H](C)N(C)C1=O [Compound 790] ([NMeL]I[NMeA][Aze][NMeCha][Sar][hPhe(3-F,4-CF3)]P[Ac5c][NMeI][NMeD]-Morpholide; lactam N-11)",2.5 nM
